Measured values taken from EP1044978A2, “1-N-alkyl-5'-[(N'-(un)substituted)amido]spiroindolinonaphthoxazines, their preparation, compositions and (co)polymer matrices containing them” (Corning S.A., priority 1999, dated 2000).

Assay: Photochromic properties of lens samples (2 mm, compound in matrix I or II) exposed to UV radiation from a xenon lamp
Type: physicochemical
Conditions: lens sample
Excerpt: The matrix used in accordance with the present invention may be one of two types :
A homopolymer of the monomer DIACRYL 121 (D121 : tetraethoxylated Bisphenol A dimethylmethacrylate), marketed by Akzo Nobel; or
A copolymer comprised of a 50/50 mixture by weight of D121 (as above) and polyethylene glycol dimethacrylate (Molecular weight = 400) (PEGDMA 400).
10^-5 moles of at least one compound of the invention, together with 0.2% by weight of AMBN (2,2'-azobis(2-methylbutyronitrile)) provided by Akzo, are added to 10 g of formulations able to generate cross-linked matrix I or II. The formulations thus prepared are then poured into a lens mould of 2 mm thickness and then cured by heating at 60°C for 6 hours, followed by heating at 80°C for 2 hours to give a lens sample.
The photochromic properties of the lens samples thus obtained were then evaluated as follows :
Said lens sample, containing said photochromic compounds in its mass, is exposed to a UV radiation (source: xenon lamp).
Bleu D: 1,3-dihydro-1,3,3,5,6-pentamethylspiro[2H-indole-2'3'-[3H]-naphth-[2,1-b][1,4]oxazine] supplied by Great Lakes. T0 : the transmission before exposure to UV TD15 : the transmission after 15 minutes' exposure to UV OID : optical induced density (D∞-D0) [D∞ is the density after exposure, D0 the density before exposure] t1/2 : time of half-darkness which characterises the kinetics of the return to the initial state when at the equilibrium the exposure is cut off. λmax : the maximum absorption in the visible spectrum after UV irradiation.

[1] = Matrix I (homopolymer of DIACRYL 121)
[2] = Matrix II (50/50 D121 / PEGDMA 400 copolymer)

Molecule | OID (optical induced density, D∞-D0) [1] | T0 (the transmission before exposure to UV) [1] [%] | TD15 (the transmission after 15 minutes' exposure to UV) [1] [%] | λmax (the maximum absorption in the visible spectrum after UV irradiation) [1] [nm] | OID (optical induced density, D∞-D0) [2] | T0 (the transmission before exposure to UV) [2] [%] | TD15 (the transmission after 15 minutes' exposure to UV) [2] [%] | λmax (the maximum absorption in the visible spectrum after UV irradiation) [2] [nm]
Cc1cc2c(cc1C)C(C)(C)C1(C=Nc3c(ccc4ccccc34)O1)N2C (stereo not shown) [Control II, 1,3-dihydro-1,3,3,5,6-pentamethylspiro[2H-indole-2'3'-[3H]-naphth-[2,1-b][1,4]oxazine], reference compound] | 0.280 | 90.5 | 47.5 | 616 | 0.357 | 90.5 | 39.8 | 616
CN1c2ccccc2C(C)(C)C12C=Nc1c(c(C(=O)N3CCOCC3)cc3ccccc13)O2 (stereo not shown) [Example 1, 1,3-dihydro-1,3,3-trimethyl-5'-morpholinocarbonylspiro[2H-indole-2,3'-[3H]-naphtho[2,1-b][1,4]oxazine]] |  |  |  |  | 0.324 | 88.9 | 42.2 | 620
CN1c2ccccc2C(C)(C)C12C=Nc1c(c(C(=O)N3CCc4ccccc43)cc3ccccc13)O2 (stereo not shown) [Example 4, 1,3-dihydro-1,3,3-trimethyl-5'-indolinocarbonylspiro[2H-indole-2,3'-[3H]-naphtho[2,1-b][1,4]oxazine]] | 0.339 | 86.9 | 39.8 | 622 | 0.553 | 85.4 | 23.9 | 622
1,3-dihydro-1,3,3,4(5),5(6)-pentamethyl-5'-piperidinocarbonyl-spiro[2H]-indole-2,3'-[3H]naphth[2,1-b][1,4]oxazine [Example 5] | 0.905 | 77.6 | 9.7 | 626 | 1.067 | 80.7 | 6.9 | 622
CN1c2ccccc2C(C)(C)C12C=Nc1c(c(C(=O)N3CCCCC3)cc3ccccc13)O2 (stereo not shown) [Example 2, 1,3-dihydro-1,3,3-trimethyl-5'-piperidinocarbonylspiro[2H-indole-2,3'-[3H]-naphtho[2,1-b][1,4]oxazine]] | 0.152 | 89.0 | 62.6 | 618 |  |  |  | 
Cc1ccc(NC(=O)c2cc3ccccc3c3c2OC2(C=N3)N(C)c3ccccc3C2(C)C)cc1 (stereo not shown) [Example 3, 1,3-dihydro-1,3,3-trimethyl-5'-p-(tolylcarbamoyl)spiro[2H-indole-2,3'-[3H]-naphtho[2,1-b][1,4]oxazine]] | 0.707 | 75.5 | 14.8 | 634 |  |  |  | 
COc1ccc2c(c1)C(C)(C)C1(C=Nc3c(c(C(=O)N4CCCCC4)cc4ccccc34)O1)N2C (stereo not shown) [Example 6, 1,3-dihydro-5-methoxy-1,3,3-trimethyl-5'-piperidinocarbonylspiro[2H]-indole-2,3'-[3H]naphth[2,1-b][1,4]oxazine] |  |  |  |  | 0.858 | 81.9 | 11.3 | 634
CC(C)CN1c2ccccc2C(C)(C)C12C=Nc1c(c(C(=O)N3CCCCC3)cc3ccccc13)O2 (stereo not shown) [Example 7, 1,3-dihydro-1-(2'-methylpropyl)-3,3-dimethyl-5'-piperidinocarbonylspiro[2H-indole-2,3'-[3H]-naphtho[2,1-b] [1,4]oxazine]] |  |  |  |  | 0.437 | 86.9 | 31.8 | 622
CN1c2ccccc2C(C)(C)C12C=Nc1c(ccc3ccccc13)O2 (stereo not shown) [Control I, 1,3-dihydro-1,3,3-trimethylspiro[2H-indole-2,3'-[3H]-naphth[2,1-b][1,4]oxazine], reference compound] | 0.142 | 90.9 | 65.6 | 607 | 0.140 | 90.5 | 65.5 | 610
